In the supplement of paper PMC10331698:
± gives the standard deviation of the averaged measurements.

How the values were obtained:
Assay in all cases: level (log10 ratio to DMSO vehicle control); higher = higher biomarker level / cell amount than vehicle control
Conditions in all cases: in DMSO
[1] = compound: C=C(C)C(=O)OCC(F)(F)C(F)(F)C(F)(F)C(F)(F)C(F)(F)C(F)(F)C(F)(F)F
Method: (§1)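 BioMAP Diversity Plus panel of 12 human primary cell co-culture systems (3C, 4H, LPS, SAg, BT, BF4T, BE3C, CASM3C, HDF3CGF, KF3CT, MyoF, Mphg). Compounds were added 1 h before stimulation and left for 24 h (MyoF 48 h; BT 72 h for soluble read-outs or 6 d for IgG). Biomarkers were read by ELISA, cytotoxicity by SRB, PBMC viability and proliferation by Alamar Blue. Each well value was divided by the mean of 8 DMSO control wells on the same plate and log10 transformed; duplicate blinded samples were tested at 4 concentrations.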

[2] = compound: CC(C)(C)C(=O)CC(=O)C(F)(F)C(F)(F)C(F)(F)F [(Heptafluorobutanoyl)pivaloylmethane]
Method: as §1

[3] = compound: O=C(O)C(F)(F)C(F)(F)C(F)(F)C(F)(F)C(F)(F)C(F)(F)C(F)(F)C(F)(F)C(F)(F)C(F)(F)C(F)(F)C(F)(F)C(F)(F)F [Perfluorotetradecanoic acid]
Method: as §1

[4] = compound: O=C(O)C(F)(F)C(F)(F)C(F)(F)C(F)(F)C(F)(F)C(F)(F)C(F)(F)C(F)(F)Cl [9-Chloro-perfluorononanoic acid]
Method: as §1

[5] = compound: O=C(O)C(F)(F)OC(F)(F)C(F)(F)OC(F)(F)C(F)(F)C(F)(F)C(F)(F)F [Perfluoro-3,6-dioxadecanoic acid]
Method: as §1

[6] = compound: O=C(O)CCC(F)(F)C(F)(F)C(F)(F)C(F)(F)C(F)(F)F [2H,2H,3H,3H-Perfluorooctanoic acid]
Method: as §1

[7] = compound: O=S(=O)(O)C(F)(F)C(F)(F)C(F)(F)C(F)(F)C(F)(F)C(F)(F)C(F)(F)C(F)(F)F [Perfluorooctanesulfonic acid]
Method: as §1

| Test System | level (log10) ([1]; 6700 nM) | level (log10) ([1]; 20000 nM) | level (log10) ([2]; 6700 nM) | level (log10) ([2]; 20000 nM) | level (log10) ([2]; 60000 nM) | level (log10) ([3]; 6700 nM) | level (log10) ([3]; 20000 nM) | level (log10) ([4]; 6700 nM) | level (log10) ([4]; 20000 nM) | level (log10) ([5]; 6700 nM) | level (log10) ([5]; 20000 nM) | level (log10) ([5]; 60000 nM) | level (log10) ([6]; 6700 nM) | level (log10) ([6]; 20000 nM) | level (log10) ([6]; 60000 nM) | level (log10) ([7]; 6700 nM) | level (log10) ([7]; 20000 nM) | level (log10) ([7]; 60000 nM) |
| --- | --- | --- | --- | --- | --- | --- | --- | --- | --- | --- | --- | --- | --- | --- | --- | --- | --- | --- |
| BF4T:PAI-I | 0.0195 ± 0.022 | 0.0135 ± 0.019 | -0.0045 ± 0.0021 | 0.001 ± 0.0028 | 0.0085 ± 0.012 | 0.014 ± 0.0028 | 0.0245 ± 0.029 | -0.027 ± 0.0042 | -0.052 ± 0.0028 | -0.057 ± 0.011 | -0.0575 ± 0.005 | -0.054 ± 0.042 | -0.005 ± 0.014 | -0.0155 ± 0.016 | -0.024 ± 0.014 | -0.002 ± 0.0085 | -0.0135 ± 0.0021 | -0.02 ± 0.052 |
| 3C:Proliferation | -0.0365 ± 0.039 | -0.0595 ± 0.037 | -0.0155 ± 0.054 | -0.044 ± 0.033 | -0.379 ± 0.24 | -0.306 ± 0.046 | -0.329 ± 0.15 | 0.016 ± 0.079 | 0.019 ± 0.041 | -0.0105 ± 0.0035 | 0.0325 ± 0.022 | -0.369 ± 0.13 | -0.0415 ± 0.022 | -0.038 ± 0.033 | -0.007 ± 0.0014 | 0.0055 ± 0.037 | 0.0115 ± 0.036 | -0.022 ± 0.044 |
| SAg:SRB | -0.001 ± 0.0099 | -0.0095 ± 0.021 | -0.0035 ± 0.0092 | -0.0025 ± 0.005 | -0.031 ± 0.034 | -0.0025 ± 0.013 | -0.008 ± 0.024 | -0.003 ± 0.0099 | -0.0105 ± 0.005 | -0.016 ± 0.0014 | -0.0085 ± 0.021 | -0.0855 ± 0.037 | -0.0065 ± 0.00071 | -0.0095 ± 0.0035 | -0.0025 ± 0.013 | 0.004 ± 0.0042 | -0.0095 ± 0.0078 | -0.0265 ± 0.011 |
| BE3C:EGFR | -0.0175 ± 0.011 | -0.0295 ± 0.011 | 0.0095 ± 0.016 | -0.0055 ± 0.023 | -0.0175 ± 0.00071 | 0.01 ± 0.014 | 0.0145 ± 0.044 | -0.004 ± 0.0014 | -0.101 ± 0.015 | -0.02 ± 0.02 | -0.0485 ± 0.019 | -0.122 ± 0.0092 | -0.004 ± 0.0042 | -0.0225 ± 0.029 | -0.008 ± 0.0099 | 0.0025 ± 0.023 | -0.125 ± 0.059 | -0.159 ± 0.12 |
| LPS:M-CSF | 0.005 ± 0.017 | 0.03 ± 0.017 | -0.004 ± 0.018 | 0 ± 0.0085 | -0.0125 ± 0.052 | -0.0435 ± 0.0021 | -0.0695 ± 0.037 | -0.0125 ± 0.0078 | 0.0485 ± 0.047 | 0.006 ± 0.018 | -0.0115 ± 0.03 | -0.013 ± 0.0057 | -0.0035 ± 0.0035 | 0.008 ± 0.014 | 0.0035 ± 0.03 | -0.022 ± 0.011 | 0 ± 0.031 | 0.008 ± 0.017 |
| BT:sTNF-alpha | -0.042 ± 0.0099 | -0.0145 ± 0.013 | -0.075 ± 0.064 | -0.0605 ± 0.016 | 0.0315 ± 0.18 | 0.014 ± 0.11 | -0.082 ± 0.092 | 0.0075 ± 0.011 | 0.0075 ± 0.022 | 0.0675 ± 0.086 | 0.0875 ± 0.08 | -0.046 ± 0.051 | -0.0085 ± 0.0035 | -0.0055 ± 0.074 | 0.005 ± 0.037 | -0.047 ± 0.095 | -0.0585 ± 0.054 | 0.0105 ± 0.079 |
| LPS:CD69 | -0.0065 ± 0.069 | 0.0095 ± 0.067 | 0.0025 ± 0.026 | 0.007 | 0.063 ± 0.018 | -0.012 ± 0.025 | -0.027 ± 0.068 | -0.0335 ± 0.026 | -0.063 ± 0.028 | -0.009 ± 0.0099 | -0.0425 ± 0.026 | -0.191 ± 0.088 | -0.0475 ± 0.084 | -0.076 ± 0.052 | -0.135 ± 0.051 | -0.018 ± 0.0057 | -0.0385 ± 0.0021 | -0.025 ± 0.014 |
